Measured values: patent US12509453B2, “BRM/BRG1 inhibitors and uses thereof” (Foghorn Therapeutics Inc., priority 2019, dated 2025)

Columns and labels:
[1] = target: T1, BRM (Homo sapiens, UniProt P51531); experiment: ATPase catalytic activity assay (ADP-Glo), BRM; assay type: biochemical; settings: 30 nM BRM, 400 μM ATP; for IC50: 20 nM salmon sperm DNA, read-out: BRM IP50 (μM)*
T1 construct: made in house; host or cells: High Five insect cells
Method: (§1) The ATPase catalytic activity of BRM or BRG-1 was measured by the in vitro biochemical assay using ADP-Glo™ (Promega, V9102). The ADP-Glo™ kinase assay is performed in two steps once the reaction is complete. The first step is to deplete any unconsumed ATP in the reaction. The second step is to convert the reaction product ADP to ATP, which will be utilized by the luciferase to generate luminesce and be detected by a luminescence reader, such as Envision.
(§2) The assay reaction mixture (10 μL) contains 30 nM of BRM or BRG-1, 20 nM salmon sperm DNA (from Invitrogen, UltraPure™ Salmon Sperm DNA Solution, cat #15632011), and 400 μM of ATP in the ATPase assay buffer, which comprises of 20 mM Tris, pH 8, 20 mM MgCl2, 50 mM NaCl, 0.1% Tween-20, and 1 mM fresh DTT (Pierce™ DTT (Dithiothreitol), cat #20290). The reaction is initiated by the addition of the 2.5 μL ATPase solution to 2.5 μL ATP/DNA solution on low volume white Proxiplate-384 plus plate (PerkinElmer,cat #6008280) and incubates at room temperature for 1 hour. Then following addition of 5 μL of ADP-Glo™ Reagent provided in the kit, the reaction incubates at room temperature for 40 minutes. Then 10 μL of Kinase Detection Reagent provided in the kit is added to convert ADP to ATP, and the reaction incubates at room temperature for 60 minutes. Finally, luminescence measurement is collected with a plate-reading luminometer, such as Envision.
as §1, with “The” for “The ATPase catalytic activity of BRM or BRG-1 was measured by the in vitro biochemical assay using ADP-Glo™ (Promega, V9102). The”
as §2, with “BRG1,” for “BRG-1,”

[2] = target: T2, BRG-1 (Homo sapiens, UniProt P51532); experiment: ATPase catalytic activity assay (ADP-Glo), BRG-1; assay type: biochemical; settings: 30 nM BRG-1, 400 μM ATP; for IC50: 20 nM salmon sperm DNA, read-out: BRG1 IP50 (μM)*; for Emax: read-out: BRG1 Max % Inhibition
T2 construct: made in house; host or cells: High Five insect cells
Method: as §1, §2
as §1, with “The” for “The ATPase catalytic activity of BRM or BRG-1 was measured by the in vitro biochemical assay using ADP-Glo™ (Promega, V9102). The”
as §2, with “BRG1,” for “BRG-1,”

T2 sequence (P51532 whole entry): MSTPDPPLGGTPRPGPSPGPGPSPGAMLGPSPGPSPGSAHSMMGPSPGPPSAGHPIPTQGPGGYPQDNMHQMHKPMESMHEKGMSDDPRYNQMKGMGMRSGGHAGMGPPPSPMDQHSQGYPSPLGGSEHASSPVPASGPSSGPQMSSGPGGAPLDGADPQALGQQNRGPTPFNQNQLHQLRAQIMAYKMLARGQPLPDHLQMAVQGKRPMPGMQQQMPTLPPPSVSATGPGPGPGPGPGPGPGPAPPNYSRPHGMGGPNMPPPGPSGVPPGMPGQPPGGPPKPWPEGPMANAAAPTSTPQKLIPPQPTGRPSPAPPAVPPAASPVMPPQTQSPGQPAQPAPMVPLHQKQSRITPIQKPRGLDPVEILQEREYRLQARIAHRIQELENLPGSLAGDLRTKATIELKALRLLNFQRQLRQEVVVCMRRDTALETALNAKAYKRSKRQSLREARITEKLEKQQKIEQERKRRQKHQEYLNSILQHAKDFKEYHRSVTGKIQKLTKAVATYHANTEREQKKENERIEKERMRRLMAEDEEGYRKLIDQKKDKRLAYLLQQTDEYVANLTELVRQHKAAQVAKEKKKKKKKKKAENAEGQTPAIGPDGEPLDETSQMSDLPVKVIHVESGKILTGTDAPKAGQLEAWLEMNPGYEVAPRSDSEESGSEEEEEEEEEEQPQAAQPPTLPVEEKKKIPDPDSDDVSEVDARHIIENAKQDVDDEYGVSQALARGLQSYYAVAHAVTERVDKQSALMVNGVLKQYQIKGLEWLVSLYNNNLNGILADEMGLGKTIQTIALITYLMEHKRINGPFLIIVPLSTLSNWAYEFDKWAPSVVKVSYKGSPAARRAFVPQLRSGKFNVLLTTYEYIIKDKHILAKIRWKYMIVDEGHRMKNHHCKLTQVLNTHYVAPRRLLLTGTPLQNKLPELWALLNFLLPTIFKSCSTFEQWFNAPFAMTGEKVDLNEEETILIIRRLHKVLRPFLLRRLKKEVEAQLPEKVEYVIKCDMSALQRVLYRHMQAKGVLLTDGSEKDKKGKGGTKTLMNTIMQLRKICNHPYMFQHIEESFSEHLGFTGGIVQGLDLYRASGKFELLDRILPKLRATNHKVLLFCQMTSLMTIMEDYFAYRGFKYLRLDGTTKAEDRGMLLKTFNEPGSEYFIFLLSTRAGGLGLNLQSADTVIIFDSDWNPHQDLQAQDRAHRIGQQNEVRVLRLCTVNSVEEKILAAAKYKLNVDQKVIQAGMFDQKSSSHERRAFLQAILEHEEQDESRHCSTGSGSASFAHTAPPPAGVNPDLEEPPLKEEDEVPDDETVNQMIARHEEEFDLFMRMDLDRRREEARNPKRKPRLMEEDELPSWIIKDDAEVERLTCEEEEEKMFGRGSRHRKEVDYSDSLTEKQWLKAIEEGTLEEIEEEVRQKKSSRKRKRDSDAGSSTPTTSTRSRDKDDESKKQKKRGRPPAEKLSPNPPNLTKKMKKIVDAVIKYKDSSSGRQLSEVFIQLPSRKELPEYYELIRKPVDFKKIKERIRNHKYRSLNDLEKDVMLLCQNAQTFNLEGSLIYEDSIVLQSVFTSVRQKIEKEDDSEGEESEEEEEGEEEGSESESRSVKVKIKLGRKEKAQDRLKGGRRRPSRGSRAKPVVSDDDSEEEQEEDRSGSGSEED
T1 sequence (P51531 whole entry): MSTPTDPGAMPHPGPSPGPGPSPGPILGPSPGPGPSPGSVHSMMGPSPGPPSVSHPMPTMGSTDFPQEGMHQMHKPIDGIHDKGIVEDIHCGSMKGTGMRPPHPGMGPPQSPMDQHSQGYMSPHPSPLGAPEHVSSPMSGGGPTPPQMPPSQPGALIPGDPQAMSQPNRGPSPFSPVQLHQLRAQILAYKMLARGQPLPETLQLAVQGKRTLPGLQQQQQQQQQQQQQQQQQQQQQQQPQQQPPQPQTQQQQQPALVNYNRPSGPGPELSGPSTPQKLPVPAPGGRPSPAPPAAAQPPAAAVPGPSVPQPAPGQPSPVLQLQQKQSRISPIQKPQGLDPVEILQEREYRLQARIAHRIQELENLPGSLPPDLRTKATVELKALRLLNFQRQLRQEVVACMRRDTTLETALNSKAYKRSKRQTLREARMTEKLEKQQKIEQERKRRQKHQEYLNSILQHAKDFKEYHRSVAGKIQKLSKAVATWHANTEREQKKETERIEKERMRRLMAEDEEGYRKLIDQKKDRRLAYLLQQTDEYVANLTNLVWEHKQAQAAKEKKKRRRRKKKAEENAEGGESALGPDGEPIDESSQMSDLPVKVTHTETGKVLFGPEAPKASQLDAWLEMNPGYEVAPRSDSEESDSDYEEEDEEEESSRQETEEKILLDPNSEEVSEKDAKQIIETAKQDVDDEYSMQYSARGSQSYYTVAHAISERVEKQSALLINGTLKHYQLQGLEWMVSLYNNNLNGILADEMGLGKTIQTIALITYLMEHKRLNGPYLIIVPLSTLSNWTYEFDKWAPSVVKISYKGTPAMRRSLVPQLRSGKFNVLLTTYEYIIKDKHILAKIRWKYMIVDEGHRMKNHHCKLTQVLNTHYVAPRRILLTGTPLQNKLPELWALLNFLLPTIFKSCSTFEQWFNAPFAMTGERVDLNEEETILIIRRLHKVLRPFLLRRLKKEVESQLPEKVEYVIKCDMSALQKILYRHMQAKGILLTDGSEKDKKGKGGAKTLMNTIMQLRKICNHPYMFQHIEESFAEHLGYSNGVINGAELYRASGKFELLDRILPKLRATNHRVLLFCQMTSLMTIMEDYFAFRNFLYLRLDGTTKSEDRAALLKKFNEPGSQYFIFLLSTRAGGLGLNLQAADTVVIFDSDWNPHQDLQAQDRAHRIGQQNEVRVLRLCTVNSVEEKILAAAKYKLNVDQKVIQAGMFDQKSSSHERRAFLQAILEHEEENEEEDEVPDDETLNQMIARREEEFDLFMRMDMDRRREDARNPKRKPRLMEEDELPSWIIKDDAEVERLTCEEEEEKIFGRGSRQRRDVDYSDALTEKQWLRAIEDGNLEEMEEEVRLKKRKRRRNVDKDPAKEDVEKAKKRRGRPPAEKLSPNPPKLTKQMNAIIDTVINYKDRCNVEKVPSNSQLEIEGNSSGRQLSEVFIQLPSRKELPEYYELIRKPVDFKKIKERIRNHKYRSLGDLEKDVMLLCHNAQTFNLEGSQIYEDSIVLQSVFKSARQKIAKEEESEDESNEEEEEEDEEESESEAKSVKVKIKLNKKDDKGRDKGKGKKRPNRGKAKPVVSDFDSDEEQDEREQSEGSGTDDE

| Compound | BRM Max % Inhibition [1] [%] | IC50 [1] [µM] | IC50 [2] [µM] | Emax [2] [%] |
| --- | --- | --- | --- | --- |
| Cc1cc(-c2cccc(-c3csc(NC(=O)CNC(=O)c4cn(S(=O)(=O)C(C)C)c5c4CCCC5)n3)c2)cc(C)n1 [Compound 20, N-(2-((4-(3-(2,6-dimethylpyridin-4-yl)phenyl)thiazol-2-yl)amino)-2-oxoethyl)-1-(isopropylsulfonyl)-4,5,6,7-tetrahydro-1H-indole-3-carboxamide] | >95 | 0.1 to 1 | > 5 | < 30 |
| CC(C)S(=O)(=O)n1cc(C(=O)NCC(=O)Nc2nc(-c3cccc(-c4ccncc4)c3)cs2)c2ccccc21 [Compound 4, 1-(isopropylsulfonyl)-N-(2-oxo-2-((4-(3-(pyridin-4-yl)phenyl)thiazol-2-yl)amino)ethyl)-1H-indole-3-carboxamide] | >60 | 0.1 to 1 | > 5 |  |
| CC(C)S(=O)(=O)n1cc(C(=O)NCC(=O)Nc2nc(-c3cccc(N4CCC(O)CC4)c3)cs2)cc1Cl [Compound 40, 5-chloro-N-(2-((4-(3-(4-hydroxypiperidin-1-yl)phenyl)thiazol-2-yl)amino)-2-oxoethyl)-1-(isopropylsulfonyl)-1H-pyrrole-3-carboxamide] | >80 | 0.1 to 1 | 1 to 5 | > 50 |
| CS(=O)(=O)n1cc(C(=O)NCC(=O)Nc2nc(-c3cccc(N4CCC(O)CC4)c3)cs2)c2ccccc21 [Compound 39, N-(2-((4-(3-(4-hydroxypiperidin-1-yl)phenyl)thiazol-2-yl)amino)-2-oxoethyl)-1-(methylsulfonyl)-1H-indole-3-carboxamide] | >80 | 0.1 to 1 | 1 to 5 | < 30 |
| CS(=O)(=O)n1cc(C(=O)NCC(=O)Nc2nc(-c3cccc(-c4ccncc4)c3)cs2)c2ccncc21 [Compound 2, 1-(methylsulfonyl)-N-(2-oxo-2-((4-(3-(pyridin-4-yl)phenyl)thiazol-2-yl)amino)ethyl)-1H-pyrrolo[2,3-c]pyridine-3-carboxamide] | >80 | 0.1 to 1 | 1 to 5 | > 70 |

Continued, values first:

| BRM Max % Inhibition [1] [%] | IC50 [1] [µM] | IC50 [2] [µM] | Emax [2] [%] | Compound |
| --- | --- | --- | --- | --- |
|  | 0.1 to 1 | 0.1 to 1 |  | Cc1c(C(=O)NCC(=O)Nc2nc(-c3cccc(N4C[C@@H](C)O[C@@H](C)C4)c3)cs2)cnn1C(C)(C)C [Compound 42, 1-(tert-butyl)-N-(2-((4-(3-((2R,6S)-2,6-dimethylmorpholino)phenyl)thiazol-2-yl)amino)-2-oxoethyl)-5-methyl-1H-pyrazole-4-carboxamide] |
| >95 | < 0.1 | 0.1 to 1 | > 80 | Cc1cc(-c2cccc(-c3csc(NC(=O)CNC(=O)c4cc(CO)n(S(=O)(=O)C(C)C)c4)n3)c2)cc(C)n1 [Compound 25, N-(2-((4-(3-(2,6-dimethylpyridin-4-yl)phenyl)thiazol-2-yl)amino)-2-oxoethyl)-5-(hydroxymethyl)-1-(isopropylsulfonyl)-1H-pyrrole-3-carboxamide] |
| >80 | 0.1 to 1 | > 5 | < 30 | CC(C)S(=O)(=O)n1cc(C(=O)NCC(=O)Nc2nc(-c3cccc(N4C[C@@H](C)O[C@@H](C)C4)c3)cs2)c2ccccc21 [Compound 31, N-(2-((4-(3-((cis)-2,6-dimethylmorpholino)phenyl)thiazol-2-yl)amino)-2-oxoethyl)-1-(isopropylsulfonyl)-1H-indole-3-carboxamide] |
| >95 | 0.1 to 1 | 1 to 5 | > 70 | Cc1cc(C(=O)NCC(=O)Nc2nc(-c3cccc(N4C[C@@H](C)O[C@@H](C)C4)n3)cs2)cn1S(=O)(=O)C(C)C [Compound 38, N-(2-((4-(6-((cis)-2,6-dimethylmorpholino)pyridin-2-yl)thiazol-2-yl)amino)-2-oxoethyl)-1-(isopropylsulfonyl)-5-methyl-1H-pyrrole-3-carboxamide] |
